Results from the NIST ThermoML archive (doi:10.1007/s10765-005-5567-5).

Conditions: Liquid; for thermal conductivity: Coaxial cylinder method; for viscosity: Capillary tube (Ostwald / Ubbelohde) method

O [water]
Conditions	thermal conductivity [W/m/K]	viscosity [mPa·s]
298.3 K, 100 kPa	0.607	–
298.3 K, 10000 kPa	0.613	–
298.3 K, 30000 kPa	0.623	–
299.76 K, 100 kPa	–	0.8591
299.76 K, 10000 kPa	–	0.8561
299.76 K, 30000 kPa	–	0.8551
313.1 K, 100 kPa	0.629	–
313.1 K, 10000 kPa	0.634	–
313.1 K, 30000 kPa	0.644	–
315.62 K, 100 kPa	–	0.6245
315.62 K, 10000 kPa	–	0.6234
315.62 K, 30000 kPa	–	0.6292
328.37 K, 100 kPa	–	0.5
328.37 K, 10000 kPa	–	0.503
328.37 K, 30000 kPa	–	0.5071
333.3 K, 100 kPa	0.651	–
333.3 K, 10000 kPa	0.656	–
333.3 K, 30000 kPa	0.666	–
347.95 K, 100 kPa	–	0.3761
347.95 K, 10000 kPa	–	0.3803
347.95 K, 30000 kPa	–	0.3872
352.9 K, 100 kPa	0.667	–
352.9 K, 10000 kPa	0.672	–
352.9 K, 30000 kPa	0.682	–
363.4 K, 100 kPa	0.673	–
363.4 K, 10000 kPa	0.678	–
363.4 K, 30000 kPa	0.689	–
375.85 K, 10000 kPa	–	0.2772
375.85 K, 30000 kPa	–	0.2833
393.1 K, 10000 kPa	0.689	–
393.1 K, 30000 kPa	0.702	–
403.95 K, 10000 kPa	–	0.2131
403.95 K, 30000 kPa	–	0.2181
423.3 K, 10000 kPa	0.691	–
423.3 K, 30000 kPa	0.704	–
431.43 K, 10000 kPa	–	0.1738
431.43 K, 30000 kPa	–	0.1786
448.7 K, 10000 kPa	0.685	–
448.7 K, 30000 kPa	0.699	–
474.3 K, 10000 kPa	0.672	–
474.3 K, 30000 kPa	0.689	–
476.4 K, 10000 kPa	–	0.1326
476.4 K, 30000 kPa	–	0.1375
499.3 K, 10000 kPa	0.652	–
499.3 K, 30000 kPa	0.672	–
502.75 K, 10000 kPa	–	0.1189
502.75 K, 30000 kPa	–	0.1239
523.4 K, 10000 kPa	0.624	–
523.4 K, 30000 kPa	0.649	–
524.75 K, 10000 kPa	–	0.1081
524.75 K, 30000 kPa	–	0.1132
548.4 K, 10000 kPa	0.591	–
548.4 K, 30000 kPa	0.622	–
549.5 K, 10000 kPa	–	0.0961
549.5 K, 30000 kPa	–	0.1011
573.5 K, 10000 kPa	0.547	–
573.5 K, 30000 kPa	0.588	–
574.54 K, 10000 kPa	–	0.0851
574.54 K, 30000 kPa	–	0.0918
